Assay results as given in patent US20230119355A1, “PHARMACEUTICAL COMPOSITIONS OF A KINASE INHIBITOR” (AURIGENE DISCOVERY TECHNOLOGIES LIMITED, priority 2020, published 2023).
Where a name gives a salt, the structure may show the parent alone. Read-outs that look alike come from different tables or passages of the source.

Experiments:
[1] = Water solubility / ionisation at physiological pH; type: physicochemical
[2] = Bioavailability after oral administration; type: in vivo

solubility in water ([1]; physiological pH range)	ionisation state ([1]; within the physiological pH range)	bioavailability after oral administration [2]	water solubility of the salt form ([1]; hydrochloride salt forms compared with compound (I))	bioavailability after oral administration ([2]; listed as Hydrochloride salt forms of compound (I))	Compound
practically insoluble	neutral	very low			Cn1cc(-c2ccc3c(c2)ncn3-c2cc(NS(=O)(=O)C3CC3)cc(-c3ccc(F)cc3F)c2)cn1 [Compound (I), N-(2′,4′-difluoro-5-(5-(1-methyl-1H-pyrazol-4-yl)-1H-benzo[d]imidazol-1-yl)-[1,1′-biphenyl]-3-yl)cyclopropanesulfonamide]
			enhanced	improved	Cn1cc(-c2ccc3c(c2)ncn3-c2cc(NS(=O)(=O)C3CC3)cc(-c3ccc(F)cc3F)c2)cn1 [Compound (I) HCl salt, hydrochloride salt of N-(2′,4′-difluoro-5-(5-(1-methyl-1H-pyrazol-4-yl)-1H-benzo[d]imidazol-1-yl)-[1,1′-biphenyl]-3-yl)cyclopropanesulfonamide]
